System: adult brown tick (Rhipicephalus sanguineus)
Assay: Assay 5: adult brown tick infestations on dogs
Type: in vivo, Rhipicephalus sanguineus on beagle dogs
Details: 10 mg/kg topical spot-on
Protocol: The total number of live parasites present on each dog is determined for each interval, and this number is transformed using the natural logarithm transformation plus one (Ln count+1); addition of one to each count served to adjust for counts that are zero. Geometric mean (GM) group tick and flea counts are obtained via back-transformation of group mean transformed counts and subtracting one. The negative control group is used for comparison to treated groups for the calculation of percent efficacy (% reduction in live parasite counts). GM percent efficacy of treatments is calculated using the following formula: […]
The therapeutic (knockdown) and residual efficacy of the Example 1-4 compounds, when administered via topical spot-on at 10 mg/kg, is evaluated against adult brown tick (Rhipicephalus sanguine us) infestations on dogs. Twenty (20) beagle dogs are allocated to either an untreated, negative control group or one of four treated groups (n=4 dogs per group). Dogs are infested with approximately 50 unfed, adult R. sanguineus ticks on Days −1, 5, 12, 19 and 28. On Day 0, dogs are treated with Example 1-4 compound formulations (each, 50 mg/ml of technical active dissolved in a vehicle solution of propylene carbonate, benzyl alcohol, and isopropyl myristate), applied via topical spot-on in a volume so as to achieve a point dose of 10 mg/kg. Tick counts and classification are conducted on Days 2, 7, 14, 21 and 30. GM percent efficacy of treatments against ticks is calculated using the formula in Assay 3.

Row | Structure (SMILES) | GM percent efficacy (Day 2, R. sanguineus) | Geometric Mean Group Live Tick Counts (Day 2, R. sanguineus) | GM percent efficacy (Day 7, R. sanguineus) | Geometric Mean Group Live Tick Counts (Day 7, R. sanguineus) | GM percent efficacy (Day 14, R. sanguineus) | Geometric Mean Group Live Tick Counts (Day 14, R. sanguineus) | GM percent efficacy (Day 21, R. sanguineus) | Geometric Mean Group Live Tick Counts (Day 21, R. sanguineus) | GM percent efficacy (Day 30, R. sanguineus) | Geometric Mean Group Live Tick Counts (Day 30, R. sanguineus)
1 | CC[C@H]1CCC[C@H](NC(=O)c2ccncn2)[C@@H](C)C(=O)C2=C[C@@H]3[C@@H](C=C[C@@H]4C[C@@H](O[C@@H]5O[C@@H](C)[C@H](OC)C(OC)[C@H]5OC)C[C@@H]34)[C@@H]2CC(=O)O1 (stereo partly drawn) [Example 2, N-((2R,3aS,5aR,5bS,9S,14R,16aS,16bR)-9-ethyl-14-methyl-7,15-dioxo-2-(((2R,3R,5S,6S)-3,4,5-trimethoxy-6-methyltetrahydro-2H-pyran-2-yl)oxy)-2,3,3a,5a,5 b,6,7,9,10,11,12,13,14,15,16a,16b-hexadecahydro-1H-as-indaceno[3,2-d][1]oxacyclododecin-13-yl)pyrimidine-4-carboxamide] | (53.80) | 14.55 | (99.12) | 0.19 | (73.29) | 5.82 | (76.46) | 7.91 | (33.99) | 17.31
2 | CC[C@H]1CCC[C@H](NC(=O)c2cc(C)on2)[C@@H](C)C(=O)C2=C[C@@H]3[C@@H](C=C[C@@H]4C[C@@H](O[C@@H]5O[C@@H](C)[C@H](OC)C(OC)[C@H]5OC)C[C@@H]34)[C@@H]2CC(=O)O1 (stereo partly drawn) [Example 4, N-((2R,3aS,5aR,5bS, 9S,13S,14R,16aS, 16bR)-9-ethyl-14-methyl-7,15-dioxo-2-(((2R,3R,5S,6S)-3,4,5-trimethoxy-6-methyltetrahydro-2H-pyran-2-yl)oxy)-2,3,3a,5a,5b,6,7,9, 10,11,12,13,14,15, 16a,16b-hexadecahydro-1H-as-indaceno[3,2-d][1]oxacyclododecin-13-yl)-5-methyl-isoxazole-3-carboxamide] | (67.71) | 10.17 | (96.60) | 0.73 | (82.25) | 3.86 | (81.13) | 6.34 | (26.88) | 19.17
3 | CC[C@H]1CCC[C@H](NC(=O)c2ccncc2)[C@@H](C)C(=O)C2=C[C@@H]3[C@@H](C=C[C@@H]4C[C@@H](O[C@@H]5O[C@@H](C)[C@H](OC)C(OC)[C@H]5OC)C[C@@H]34)[C@@H]2CC(=O)O1 (stereo partly drawn) [Example 3, N-((2R,3aS,5aR,5bS, 9S,13S,14R,16aS, 16bR)-9-ethyl-14-methyl-7,15-dioxo-2-(((2R,3R,5S,6S)-3,4,5-trimethoxy-6-methyltetrahydro-2H-pyran-2-yl)oxy)-2,3,3a,5a,5b,6,7,9,10,11,12,13,14, 15,16a,16b-hexadecahydro-1H-as-indaceno[3,2-d][1]oxacyclododecin-13-yl)isonicolina-mide] | (62.52) | 11.80 | (85.01) | 3.23 | (76.50) | 5.12 | (82.44) | 5.90 | (41.02) | 15.47

From patent US20160115189A1, “PARASITICIDAL COMPOUNDS, METHODS, AND FORMULATIONS” (ELI LILLY AND COMPANY, priority 2013, published 2016)
